In patent publication US5792457A, “Antibody recognizing endothelial cell ligand for leukocyte CR3” (priority 1995, dated 1998):

Columns and labels:
[1] = Stability of FHA II peptide in 50% rabbit plasma; format: in vitro ADME; conditions: 37° C.
Experimental: To determine the stability of the FHA II peptide, the unmodified or the acetylated-amidated peptide were incubated in 50% rabbit plasma at 37° C.

CSF leukocytosis = assay: Rat meningitis model (LOS): CSF leukocytosis; format: in vivo, female Wistar rats; conditions: 600 nmol i.v., 4 hours after LOS
Experimental: The experiments were performed according to established protocols (Wispelway et al., 1988, J. Clin. Invest., 82: 1339-1346). Purified Haemophilus influenzae type b strain DL42 lipooligosaccharide (LOS) was prepared for inoculation by sonication for 30 minutes, dilution to the desired concentration (20 ng/50 μl) in normal saline or PBS, and sonication for an additional 15 to 30 minutes just prior to use.
(§1) Briefly, anesthetized female Wistar rats were placed under a micromanipulator and inoculated intracisternally with a 25 gauge needle. After removal of 50 μl of CSF (without visible blood contamination), rats were inoculated intracisternally with 50 μl (20 ng) of LOS using a 1 ml syringe with a 25 gauge needle. Ten to fifteen minutes after inoculation with LOS, the rats were treated by intravenous administration of the test substance: a solution of an FHA peptide in PBS, a solution of a control peptide in PBS, or an equal volume of PBS alone.
(§2) Three hours after LOS inoculation, 5 μCi of ^125 I-radiolabelled albumin in 50 μl normal saline was administered intravenously. One hour later, CSF was collected via intracisternal puncture and blood samples were collected via intracardiac puncture. CSF leukocytosis was determined by manually counting white blood cells using a hemacytometer, and blood-brain barrier permeability was determined as the percent of radioactivity in whole blood that was present in the CSF. Blood samples were obtained immediately prior to inoculation, immediately prior to treatment, and at 4 hours post-inoculation for determination of peripheral white blood cell concentrations.

[2] = tested on: peripheral white blood cells; assay: Rat meningitis model: peripheral white blood cell concentrations; format: in vivo, female Wistar rats; conditions: following i.v. administration
Experimental: as §2

[3] = tested on: blood-brain barrier permeability; assay: Rat meningitis model (LOS): blood-brain barrier permeability (125I-albumin); format: in vivo, female Wistar rats; conditions: for BBB permeability: percent of radioactivity in whole blood present in CSF
Experimental: as §1, §2

cerebral infarct = assay: Rat transient middle cerebral artery occlusion (MCAO): infarct volume; format: in vivo, male Wistar rats; conditions: 50 nmol i.v. at reperfusion then 150 nmol i.p.; 2 hour MCAo, 2 day survival
[4] = tested on: Factor Xa procoagulant activity on THP-1 cells; assay: Generation of Factor Xa by monocytes (THP-1), clotting assay; format: cell-based; conditions: for Factor Xa / Clotting time: peptides 0.5 mM; for Clotting time: mean ± SD of at least 3 experiments
Experimental: Factor Xa generation was determined by a modification of the method of Miletich et al. (1978), J. Biol. Chem. 253: 6908-6916. THP-1 cells (ATCC; […]) resuspended in RPMI 1640 (Bio Whittaker, Walkersville,Md.) were incubated with 100 μM ADP (Sigma), 2.5 mM CaC2, 1 or 5 μg/ml Factor X (Hematologic Technologies Inc.) and 0.5 mM peptides at room temperature. After 20 minutes, 100 μl of the reaction mixture was transferred to 37° C. and supplemented with 100 μl of bovine factor VII- and Factor X-deficient plasma (Sigma). Coagulation was initiated by adding 100 μl of 25 mM CaC2 and the clotting time was determined. Factor Xa procoagulant activity (ng/ml) was calculated by means of a standard curve constructed by serial concentrations of Factor Xa (Hematologic Technologies Inc.) from 50 to 250 ng/ml.

[5] = tested on: recognition of C3bi by antibody 12.1F9; assay: Inhibition of binding of 12.1F9 to E^C3bi by peptides; design: species or system human; conditions: peptides 50 μg/ml
Description: Values are normalized to a control value of 100; data are expressed as the mean±SD of 6 experiments with duplicate wells.

[6] = tested on: leukocyte migration into the CSF; assay: Anti-inflammatory activity in rabbits with meningitis (FIG. 5, FIG. 6); format: in vivo, rabbit; conditions: intravenous
Description: This inhibitory activity implies that antibodies to FHA which bind to any of the three Factor X regions would disturb leukocyte recruitment. This is to be distinguished from anti-FHA antibodies that bind to endothelia by recognizing an integrin receptor which is an endothelial cell component (see below). […] This is shown in FIG. 6 where various doses of antibody were given to rabbits and the number of leukocytes recruited into the cerebrospinal fluid in response to pneumonoccal meningitis was determined.

[7] = ciliary extracts; cited from earlier work
Factor X binding to CR3 = conditions: cited from earlier work

Substance: Ac-ETKEVDG-NH2 [Acetyl/Amide-FHA II]
- stability in plasma (in words) ([1]; 48 hours): remained unchanged over 48 hours
- Leukocytosis (CSF) (CSF leukocytosis): approximately 10,000 cells/ml
- Leukocytosis (CSF) (CSF leukocytosis; listed as ac/am FHA II): 10,500 ± 8523 cells/ml
- neutropenia [2]: No neutropenia was observed

Substance: RGDPHQGVLAQGDIIMDAKG [FHA Ca]
- BBB permeability ([3]; 50 nmol): 5.8 ± 2.7%
- BBB permeability ([3]; 100 nmol): 3.0 ± 2.2%
- Inhibition of blood-brain barrier permeability (in words) ([3]; rat, in vivo): appeared to be dose dependent
- neutropenia [2]: No neutropenia was observed
- volume of the infarct (cerebral infarct): approximately 25 % of the hemisphere

Substance: ETKEVDG [FHA II]
- effect on Factor Xa generation (in words) [4]: did not interfere with the generation of Factor Xa procoagulant activity
- Factor Xa [4]: 86.0 ng/mL
- Clotting time [4]: 30.0 ± 5.0 s
- time in which concentration decreased by half [1]: 4 to 6 h

Substance: native FHA: Filamentous hemagglutinin, 220kD surface associated protein of Bordetella pertussis (List Biologicals)
- block of binding of 12.1F9 to E^C3bi (in words) [5]: blocked binding almost completely
- Adherence index ([5]; normalized to control value of 100, 6 experiments): 16 ± 16
- antiinflammatory activity in meningitis (in words) [6]: antiinflammatory activity in the sense of inhibiting leukocyte migration into the CSF
- binding to lactosylceramide (in words) [7]: binds to lactosylceramide

Substance: LGYQAK (UniProt P12255 1979-1984, looked up, fragment) [FHA Ia]
- Factor Xa [4]: 57.4 ng/mL
- Clotting time [4]: 34.1 ± 1.1 s

Substance: GYDTKQEDG [Factor X II]
- reduction of Factor Xa production ([4]; 0.5 mM, vs scrambled FHA II, 20 min): > 90%
- Factor Xa [4]: < 10 ng/mL
- Clotting time [4]: 55.2 ± 4.0 s
- inhibition of binding of CR3 bearing cells to Factor X (in words) (Factor X binding to CR3): competitively inhibit the binding of CR3 bearing tissue culture cells to purified Factor X

Substance: DEETVK [scrambled FHA II, reference compound]
- Factor Xa [4]: 165.0 ng/mL
- Factor Xa ([4]; control FHA II peptide): 165 ng/mL
- Clotting time [4]: 23.1 ± 1.0 s
